Results published in article PMC4734667 (PLoS ONE, 2016).
Converted amounts (≈) assume the structure as drawn. “And” between values parts separate entries of the source, which are not always exact repeats. Equal entries are not always repeated. “Also recorded” adds a separate entry of the source. Where two headings read alike, the source gives them in different places.

Key:
[1] = target: T1, human GluN2A (Homo sapiens, UniProt Q05586+Q12879); test: Ca2+ fluorescence (fluo-8) assay in HEK cells expressing GluN2A; assay type: cell-based; settings: for IC50: read-out: GluN2A IC50 (nM) ± SEM (n); for inhibition at 10 µM: HEK293, read-out: inhibition of GluN2A activity at 10 μM, 10 μM compound, HEK cell assay
T1 construct: host or cells: HEK293, tetracycline-induced
T1 sequence (Q12879 23-1464, other chains not shown): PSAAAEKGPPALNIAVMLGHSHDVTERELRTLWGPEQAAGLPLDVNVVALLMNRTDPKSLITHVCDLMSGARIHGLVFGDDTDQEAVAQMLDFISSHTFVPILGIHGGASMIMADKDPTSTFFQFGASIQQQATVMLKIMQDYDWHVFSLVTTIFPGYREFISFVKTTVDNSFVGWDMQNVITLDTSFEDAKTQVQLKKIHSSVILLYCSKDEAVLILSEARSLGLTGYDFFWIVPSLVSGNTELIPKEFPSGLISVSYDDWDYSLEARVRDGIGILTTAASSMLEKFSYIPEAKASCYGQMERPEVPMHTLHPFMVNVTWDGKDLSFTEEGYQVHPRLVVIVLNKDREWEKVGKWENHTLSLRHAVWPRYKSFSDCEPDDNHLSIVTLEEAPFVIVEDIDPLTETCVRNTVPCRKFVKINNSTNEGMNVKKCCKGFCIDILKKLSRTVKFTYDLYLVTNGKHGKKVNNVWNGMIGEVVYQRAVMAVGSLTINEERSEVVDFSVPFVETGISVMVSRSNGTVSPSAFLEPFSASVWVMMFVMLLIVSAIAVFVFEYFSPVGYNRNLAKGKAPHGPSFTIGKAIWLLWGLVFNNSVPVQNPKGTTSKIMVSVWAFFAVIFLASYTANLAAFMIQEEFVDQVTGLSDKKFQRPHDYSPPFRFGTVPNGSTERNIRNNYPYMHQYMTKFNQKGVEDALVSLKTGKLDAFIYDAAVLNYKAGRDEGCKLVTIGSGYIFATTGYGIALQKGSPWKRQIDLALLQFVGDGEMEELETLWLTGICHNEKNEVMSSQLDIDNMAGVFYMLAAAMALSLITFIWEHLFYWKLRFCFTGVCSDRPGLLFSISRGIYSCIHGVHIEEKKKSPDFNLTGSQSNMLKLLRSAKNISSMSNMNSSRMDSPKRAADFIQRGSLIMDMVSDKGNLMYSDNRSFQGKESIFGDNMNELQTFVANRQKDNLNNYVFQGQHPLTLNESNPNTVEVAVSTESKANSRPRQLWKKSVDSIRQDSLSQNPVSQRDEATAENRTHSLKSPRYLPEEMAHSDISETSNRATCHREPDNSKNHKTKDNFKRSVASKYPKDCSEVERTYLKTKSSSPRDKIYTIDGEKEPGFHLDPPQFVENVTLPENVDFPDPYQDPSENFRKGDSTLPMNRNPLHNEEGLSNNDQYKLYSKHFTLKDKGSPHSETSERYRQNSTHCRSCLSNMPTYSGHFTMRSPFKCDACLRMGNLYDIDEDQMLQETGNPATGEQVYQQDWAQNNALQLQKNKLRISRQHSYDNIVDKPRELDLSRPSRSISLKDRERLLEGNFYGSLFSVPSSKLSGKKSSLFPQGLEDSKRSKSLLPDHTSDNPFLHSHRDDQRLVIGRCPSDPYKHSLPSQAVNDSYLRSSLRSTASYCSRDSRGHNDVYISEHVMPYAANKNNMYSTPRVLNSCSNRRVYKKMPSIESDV
Method: HEK293 cells expressing the human GRIN1/GRIN2A genes (Chantest Catalog #: CT6120) were grown as an adherent monolayer at 37°C, 5% CO2 in DMEM/Ham’s F12 + 10% tetracycline-screened FBS (Hyclone SH3007.03T) and 500 μg/ml G418. […] To prepare the cells for an experiment, they were rinsed with Dulbecco’s PBS (Ca^2+ and Mg^2+ free) and detached from the flask with TrypLE™ Express (Life Technologies, Carlsbad, CA) using the manufacturer’s recommended methods. Cells collected from the flask were washed twice in Ca^2+/Mg^2+-free Hanks Balanced Salt Solution + 20 mM HEPES (HBSS), and counted and assessed for viability with trypan blue. Washed cells were then dye-loaded by resuspending in Fluo-8/AM calcium sensitive dye plus Component B (AAT Bioquest, Sunnyvale, CA) diluted in HBSS. […] The cell plates were centrifuged at 200 x g, for 2 minutes at 21°C, to create a monolayer of cells at the bottom of the wells.
To initiate an assay, 10 μl of test compound or buffer was added to each well of the cell plate and pre-incubated for 10 minutes in the dark. After 10 minutes, the cell plate was placed in a FDSS 6000 plate reader (Hamamatsu Photonics, Middlesex, NJ); baseline fluorescence readings were collected for 20 seconds. Next, 25 μl of agonist solution (3 μM glutamate, 3 μM glycine, and 1 mM Ca^2+ in HBSS) was added and the change in fluorescence was recorded for 3 minutes.
Results were calculated by computing the ratio of maximum fluorescence achieved during agonist-addition phase vs. baseline fluorescence.

[2] = target: T2, human GluN2B (Homo sapiens, UniProt Q05586+Q13224); test: Ca2+ fluorescence (fluo-8) assay in HEK cells expressing GluN2B; assay type: cell-based; settings: for inhibition at 10 µM: HEK293, 10 μM compound, negative = increase in Ca2+ response, read-out: GluN2B % Inhib. @ 10 μM ± SEM (n)
T2 construct: expressed in transfected cells; host or cells: HEK cells
T2 sequence (Q13224 27-1484, other chains not shown): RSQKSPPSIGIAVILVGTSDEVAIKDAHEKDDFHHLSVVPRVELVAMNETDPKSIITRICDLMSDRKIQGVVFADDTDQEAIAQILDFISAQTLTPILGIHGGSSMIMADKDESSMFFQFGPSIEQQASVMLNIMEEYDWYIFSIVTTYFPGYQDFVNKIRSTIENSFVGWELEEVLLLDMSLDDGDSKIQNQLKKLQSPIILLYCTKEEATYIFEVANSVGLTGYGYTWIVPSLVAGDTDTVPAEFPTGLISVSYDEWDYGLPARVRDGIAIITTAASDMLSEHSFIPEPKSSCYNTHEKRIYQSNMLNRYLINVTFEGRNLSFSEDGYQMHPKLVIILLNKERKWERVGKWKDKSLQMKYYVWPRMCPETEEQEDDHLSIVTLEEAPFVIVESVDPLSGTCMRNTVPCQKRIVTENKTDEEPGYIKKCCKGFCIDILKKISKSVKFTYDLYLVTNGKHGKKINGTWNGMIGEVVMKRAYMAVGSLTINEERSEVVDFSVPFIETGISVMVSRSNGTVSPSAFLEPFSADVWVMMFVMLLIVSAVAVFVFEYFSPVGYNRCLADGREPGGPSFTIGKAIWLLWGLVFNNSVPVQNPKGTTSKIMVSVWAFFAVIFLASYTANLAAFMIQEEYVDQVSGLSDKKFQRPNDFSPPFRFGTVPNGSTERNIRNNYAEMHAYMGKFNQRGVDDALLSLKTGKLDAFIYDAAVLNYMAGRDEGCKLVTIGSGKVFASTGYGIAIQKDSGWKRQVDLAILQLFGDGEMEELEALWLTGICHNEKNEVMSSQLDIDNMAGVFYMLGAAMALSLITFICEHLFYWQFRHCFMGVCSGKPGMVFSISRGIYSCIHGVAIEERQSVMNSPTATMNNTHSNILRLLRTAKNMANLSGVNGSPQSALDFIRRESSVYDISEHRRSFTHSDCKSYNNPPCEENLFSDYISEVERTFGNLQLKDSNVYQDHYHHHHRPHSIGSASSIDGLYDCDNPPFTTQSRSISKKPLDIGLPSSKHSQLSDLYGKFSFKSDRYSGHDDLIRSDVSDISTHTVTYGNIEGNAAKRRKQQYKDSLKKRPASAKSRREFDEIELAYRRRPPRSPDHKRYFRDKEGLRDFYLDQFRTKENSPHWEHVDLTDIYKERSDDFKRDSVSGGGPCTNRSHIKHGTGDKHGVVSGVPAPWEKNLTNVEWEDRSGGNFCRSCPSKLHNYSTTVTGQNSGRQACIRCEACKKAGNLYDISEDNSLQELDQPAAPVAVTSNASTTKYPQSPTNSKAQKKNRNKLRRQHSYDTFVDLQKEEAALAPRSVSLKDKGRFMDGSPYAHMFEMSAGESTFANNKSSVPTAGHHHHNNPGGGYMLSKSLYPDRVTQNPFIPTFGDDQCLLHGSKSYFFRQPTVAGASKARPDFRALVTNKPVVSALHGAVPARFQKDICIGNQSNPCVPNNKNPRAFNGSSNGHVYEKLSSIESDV

[3] = target: T3, human GluN2D (Homo sapiens, UniProt O15399+Q05586); test: Ca2+ fluorescence (fluo-8) assay in HEK cells expressing GluN2D; assay type: cell-based; settings: for inhibition at 10 µM: HEK293, 10 μM compound, negative = increase in Ca2+ response, read-out: GluN2D % Inhib. @ 10 μM ± SEM (n)
T3 construct: expressed in transfected cells; host or cells: HEK cells
T3 sequence (O15399 28-1336, other chains not shown): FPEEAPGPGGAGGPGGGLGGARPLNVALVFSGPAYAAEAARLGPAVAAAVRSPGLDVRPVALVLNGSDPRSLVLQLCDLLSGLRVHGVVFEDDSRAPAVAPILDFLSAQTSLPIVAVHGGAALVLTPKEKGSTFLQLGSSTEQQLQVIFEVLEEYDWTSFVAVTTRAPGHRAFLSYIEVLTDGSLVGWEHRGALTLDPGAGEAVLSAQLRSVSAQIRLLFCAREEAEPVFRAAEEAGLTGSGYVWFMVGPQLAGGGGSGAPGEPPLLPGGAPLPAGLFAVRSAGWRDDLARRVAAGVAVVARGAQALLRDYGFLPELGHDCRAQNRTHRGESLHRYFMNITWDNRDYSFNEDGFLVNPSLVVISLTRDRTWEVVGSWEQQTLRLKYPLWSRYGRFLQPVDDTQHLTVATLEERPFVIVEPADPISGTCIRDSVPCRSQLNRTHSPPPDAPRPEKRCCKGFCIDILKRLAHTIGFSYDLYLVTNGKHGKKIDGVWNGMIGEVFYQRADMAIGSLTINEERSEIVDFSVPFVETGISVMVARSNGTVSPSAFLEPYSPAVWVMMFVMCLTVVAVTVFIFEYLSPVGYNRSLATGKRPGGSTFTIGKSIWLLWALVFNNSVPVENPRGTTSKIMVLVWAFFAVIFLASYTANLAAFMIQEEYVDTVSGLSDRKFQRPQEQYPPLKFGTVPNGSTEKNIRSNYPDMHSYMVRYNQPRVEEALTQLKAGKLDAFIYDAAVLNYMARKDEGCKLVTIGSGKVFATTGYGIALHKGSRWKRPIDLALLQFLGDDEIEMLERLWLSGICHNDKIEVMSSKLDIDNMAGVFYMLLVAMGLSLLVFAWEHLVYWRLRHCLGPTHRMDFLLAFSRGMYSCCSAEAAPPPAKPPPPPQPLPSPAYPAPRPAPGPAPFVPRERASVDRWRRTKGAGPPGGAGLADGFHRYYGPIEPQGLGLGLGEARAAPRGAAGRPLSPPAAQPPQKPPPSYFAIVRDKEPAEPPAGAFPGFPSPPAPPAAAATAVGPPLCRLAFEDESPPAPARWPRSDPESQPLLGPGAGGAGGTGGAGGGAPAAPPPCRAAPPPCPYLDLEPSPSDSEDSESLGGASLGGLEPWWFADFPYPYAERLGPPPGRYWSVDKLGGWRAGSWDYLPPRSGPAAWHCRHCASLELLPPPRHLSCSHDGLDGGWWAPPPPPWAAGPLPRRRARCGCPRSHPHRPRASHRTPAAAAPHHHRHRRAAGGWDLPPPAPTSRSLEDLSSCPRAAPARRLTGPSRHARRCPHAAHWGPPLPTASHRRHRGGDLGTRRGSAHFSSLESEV

[4] = target: NMDA receptor (Rattus norvegicus, UniProt P35439+Q00959); test: NMDA receptor-mediated fEPSPs in rat hippocampal slices (CA1, MEA); assay type: cell-based; settings: 30 μM D-AP5
Source text: Multi-electrode arrays (MEA) technology was used in the recording of hippocampal slices from 3 to 4 week-old male and female Sprague- Dawley rats (Elevage Janvier, Le Genest St Isle, France).
The rats were sacrificed by fast decapitation, without previous anesthesia. The brain was quickly removed and soaked in ice-cold oxygenated buffer with the following composition in mM: KCl 2, NaH2PO4 1.2, MgCl2 7, CaCl2 0.5, NaHCO3 26, glucose 11, and saccharose 250. […] Slice were placed in the center of a 3D-MEA to cover the electrode field (1.4 mm^2) and then immobilized with a netting ballast. […] NBQX (10 μM) was added to inhibit AMPA receptors. The bath was ground connected with a 1 M NaCl-Agar bridge.
All data were recorded with a MEA set-up from Multi Channel Systems MCS GmbH (Reutlingen, Germany) composed of a 4-channel stimulus generator and a 60-channel amplifier head-stage connected to a 60-channel A/D card. […]
Following visual observation through a CCD camera, one of the electrodes identified in the CA3 field (at CA3/CA1 border) was disconnected from its amplifier and used to stimulate Schaeffer collaterals. […] Simultaneous evoked field potentials were recorded from 3 to 6 electrodes in the CA1 stratum radiatum region, corresponding to the physiological propagation of the stimulus along the Schaffer collateral pathway. […]

[5] = target: T4, 5-HT1B (Rattus norvegicus, UniProt P28564); test: CEREP-80 panel ligand binding, 5-HT1B; settings: read-out: inhibition of 5-HT1B antagonist binding
T4 construct: CEREP (panel CEREP-80)
T4 sequence (P28564 whole entry): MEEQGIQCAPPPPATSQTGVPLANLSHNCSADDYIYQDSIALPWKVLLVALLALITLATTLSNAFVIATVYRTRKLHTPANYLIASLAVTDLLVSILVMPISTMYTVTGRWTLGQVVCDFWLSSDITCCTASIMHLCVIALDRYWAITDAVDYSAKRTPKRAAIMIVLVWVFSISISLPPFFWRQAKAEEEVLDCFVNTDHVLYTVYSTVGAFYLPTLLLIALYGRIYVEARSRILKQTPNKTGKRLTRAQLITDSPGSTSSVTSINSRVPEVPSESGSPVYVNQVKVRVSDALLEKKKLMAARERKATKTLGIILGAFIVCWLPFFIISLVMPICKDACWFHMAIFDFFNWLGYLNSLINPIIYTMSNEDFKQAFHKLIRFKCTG

[6] = target: T5, 5-HT2A (Homo sapiens, UniProt P28223); test: CEREP-80 panel ligand binding, 5-HT2A; settings: read-out: inhibition of 5-HT2A agonist binding
T5 construct: CEREP (panel CEREP-80)

[7] = target: T6, EP4 (Homo sapiens, UniProt P35408); test: CEREP-80 panel ligand binding, EP4; settings: read-out: inhibition of EP4 agonist binding
T6 construct: CEREP (panel CEREP-80)
T6 sequence (P35408 whole entry): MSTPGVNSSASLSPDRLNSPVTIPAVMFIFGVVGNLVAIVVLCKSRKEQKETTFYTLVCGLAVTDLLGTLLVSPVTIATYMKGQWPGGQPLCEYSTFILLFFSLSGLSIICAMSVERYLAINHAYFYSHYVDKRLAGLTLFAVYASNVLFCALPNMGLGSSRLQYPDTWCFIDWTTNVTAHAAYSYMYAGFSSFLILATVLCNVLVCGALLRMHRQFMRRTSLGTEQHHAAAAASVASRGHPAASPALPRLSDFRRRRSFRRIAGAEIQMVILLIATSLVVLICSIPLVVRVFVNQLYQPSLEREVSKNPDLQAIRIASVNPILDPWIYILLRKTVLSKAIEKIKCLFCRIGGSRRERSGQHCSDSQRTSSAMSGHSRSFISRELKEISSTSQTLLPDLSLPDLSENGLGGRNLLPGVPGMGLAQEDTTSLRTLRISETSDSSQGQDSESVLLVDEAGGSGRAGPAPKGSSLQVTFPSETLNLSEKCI

[8] = tested on: panel of receptors and enzymes relevant to CNS pharmacology (CEREP-80); test: CEREP-80 panel ligand binding, remainder of the panel; settings: 1 μM
Source text: […]. […] […]

[9] = tested on: AMPA receptor; test: AMPA receptor-mediated synaptic currents of pyramidal neurons in mouse visual cortex slices; assay type: cell-based; settings: in the presence of 50 μM compound; controls 118±16 pA
Method: […]. […] […].
Wild-type (WT) mice and GRIN2A knock-out (KO) male mice were bred in house at Boston Children’s Hospital. The GRIN2A-KO colony was derived from mice originally obtained from M. Mishina (1995, University of Tokyo, Japan). All procedures using these mice were approved by the Boston Children’s Hospital Institutional Animal Care and Use Committee. Methods used were previously described in [30] and are summarized below.
Coronal visual cortical slices ([…]) were prepared from postnatal day (P)22–31 male mice following decapitation under isoflurane anesthesia. […]
Layer 2/3 pyramidal neurons were selected based on morphology under infrared differential interference contrast microscopy and their identity confirmed from a brief train of action potentials recorded prior to initiating voltage-clamp recordings. […] All data were acquired and analyzed using custom- made procedures in Igor-Pro Software (WaveMetrics, Lake Oswego, Oregon).
To estimate the relative contribution of NMDA and AMPA receptors to the synaptic current, the amplitude was measured at the time of the peak current at -100 mV for the AMPA receptor-mediated current and at the time point after the current at -100 mV had decayed to less than 5% of its peak amplitude for the NMDA receptor-mediated current. […]

[10] = Kinetic solubility; assay type: physicochemical; settings: phosphate buffered saline, aqueous buffer, kinetic from dmso stock; in solution by HPLC after dissolution in DMSO and addition to saline
Method: Compounds were prepared as stock solutions at 20 mM in DMSO and diluted in DMSO to give a range of test concentrations 100-fold greater than final. Compounds were diluted 100-fold into phosphate buffered saline and incubated during mild shaking for 90 min at room temperature. Solutions were filtered through multiscreen solubility filter plate and the filtrate analyzed for compound concentration by HPLC-UV/PDA or LC-MS/MS.

[11] = Stability in pooled human liver microsomes; assay type: in vitro ADME; settings: pH 7.4, 1 μM compound, read-out: HLM t½
Method: Human liver microsomes were prepared from pooled cryopreserved human hepatocytes (HEP10™, catalog number HMCS10, lot # HuE106, Life Technologies Corporation, Grand Island, NY). According to the vendor, the liver cells from lot HuE106 were derived from tissue obtained from accredited institutions. Consent was obtained by these institutions from the donors or the donor’s legal next of kin, for use of the tissue and its derivatives for research purposes. Microsomes were diluted into 66.7 mM potassium phosphate buffer (pH 7.4) to an approximate concentration of 0.5 mg/mL of microsomal protein. Test compounds (1 μM) were pre-incubated with the microsomes for 5 min at 37°C and then the reaction initiated by addition of […]. After different times up to 30 min, the reactions were quenched, clarified by centrifugation and remaining compound quantified by LC-MS/MS.

[12] = tested on: MDR1; test: in vitro; assay type: in vitro ADME; settings: dog, MDCK-MDR1; for Papp A→B: compound added on apical side (A-B), read-out: MDCK A-B permeability; for Papp B→A: compound added on basal side (B-A), read-out: MDCK B-A permeability
Method: MDCK cells transfected with MDR1 were maintained in monolayer culture for 3–4 days in 24-well transporter plates. Cultures with average TEER values of 600–800 Ohm x cm^2 were utilized for experimentation. Test compound was added to either the apical or basal membrane chamber and then efflux across the monolayer was monitored by quantifying compound with LC-MS/MS.

[13] = tested on: uninjected oocytes; test: Endogenous currents in control (uninjected) oocytes; assay type: cell-based, Xenopus; settings: concentrations up to 10 μM
Method: The cells were then gently aspirated with a Pasteur pipette to remove the follicular tissue; this was followed by washing three times with OR-2 to remove all traces of collagenase. The oocytes were then washed in ND-96 (96 mM NaCl, 2 mM KCl, 1.8 mM CaCl2, 1 mM MgCl2, 5 mM HEPES, 50 ng/L gentamycin, 100 units/ml penicillin and 100 μg/ml streptomycin; pH 7.6) three times and this was followed by incubation in ND-96 at room temperature with mild agitation for 15 minutes; subsequently they were stored for at least 2 hours at 16°C before sorting and selection for injection. Oocytes selected for injection were incubated overnight in ND-96 at 16°C.
Electrodes were filled with 3 M KCl and had resistances that ranged from 0.2–1 MΩ. All measurements were made at a holding potential of -40 mV. Cells were continuously perfused with oocyte recording solution containing 90 mM NaCl, 1 mM KCl, 0.5 mM BaCl2, and 10 mM HEPES (Ph 7.4). […] Co-agonists were applied until a plateau was reached, and test compounds were then added in the continued presence of co-agonists until a new plateau was reached. […] Fraction of current remaining was calculated as [(current in presence of test compound–background current) / (co-agonist current–background current)] and IC50 values were computed using Prism 6.0 (Graphpad).

[14] = tested on: NMDA receptor (NMDA + glycine evoked currents); test: Whole-cell manual patch clamp of rat cortical neurons in primary culture; assay type: cell-based; settings: 10 μM compound; NMDA 100 μM + glycine 10 μM; +40 mV; mean ± SEM
Source text: Cortical neurons isolated from E18 rat embryos and cultured for two weeks were examined in whole-cell manual patch clamp experiments.
Cryopreserved E-18 rat cortical neurons (GIBCO A10840-02) were purchased from Life Technologies Italia (Monza, Italy).
Cortical neurons were thawed and plated at 5x10^4 or 10x10^4 cells/well in 35 x 100 mm tissue culture dishes containing poly-D-lysine treated glass coverslips, and maintained in the media and conditions recommended by the manufacturer for 13–15 days. […] Glycine (10 μM) was added in the extracellular solution or in the NMDA solution. Cells were patch clamped in the whole-cell configuration with a holding potential of -70 mV stepping once every minute to +20 or +40 mV for 10 s. Starting 1.5 s after each voltage step, 100 μM NMDA plus 10 μM glycine was applied using rapid local perfusion (RSC-200, Bio-Logic Science Instruments, Claix, France). Currents were evaluated at peak during the NMDA application, and current inhibition was computed using Prism software (GraphPad) once steady state was achieved.

[15] = inhibition of Ca2+ response, HEK cells, glutamate and glycine 3 μM each
[16] = inhibition of Ca2+ response, HEK cells, glutamate and glycine 3 μM each, read-out: GluN2B IC50 (nM) ± SEM (n)
[17] = inhibition of Ca2+ response, HEK cells, glutamate and glycine 3 μM each, read-out: GluN2D IC50 (nM) ± SEM (n)

Q: What does the source list for `O=C(O)c1cc(=O)c2c(Cl)cc(Cl)cc2[nH]1` [5,7-DCKA, reference compound]?
A: IC50 [1, 15]: 1170 ± 230 nM; IC50 [2, 16]: 8400 ± 1400 nM; IC50 [3, 17]: > 10000 nM

Q: Which IC50 [2, 16] does the source give for `N[C@@H](Cc1ccccn1)c1ccccc1` [ARL-15896, reference compound] here?
A: 510000 nM

Q: What about the IC50 [3, 17] of the same molecule?
A: 25000 nM

Q: With `C[C@@H]([C@@H](O)c1ccc(O)cc1)N1CCC(O)(c2ccccc2)CC1` [CP-101,606, reference compound] as the molecule, how does the IC50 [1, 15] read?
A: > 10000 nM

Q: And the IC50 [3, 17]?
A: > 10000 nM

Q: For `NC(CCCP(=O)(O)O)C(=O)O` [D-AP5], which “block of fEPSPs by D-AP5 at the conclusion of each experiment” value [4] is on record?
A: completely blocked

Q: Which results are given for `C[C@]12N[C@H](Cc3ccccc31)c1ccccc12` [MK-801, reference compound]?
A: IC50 [2]: 75 ± 4 nM; IC50 [3]: 87 ± 3 nM

Q: Which inhibition at 1 µM [5] does the source give for `Cc1ncc(CNC(=O)c2cnc(CNS(=O)(=O)c3ccc(F)c(Cl)c3)cn2)s1` [MPX-004, 5-(((3-chloro-4-fluorophenyl)sulfonamido)methyl)-N-((2-methylthiazol-5-yl)methyl)pyrazine-2-carboxamide] here?
A: 35%

Q: What about the inhibition at 1 µM [6] of the same molecule?
A: 31%

Q: What about the inhibition at 1 µM [7] of the same molecule?
A: 27%

Q: And the “effects on binding of ligands in the remainder of the panel” value [8]?
A: less than 25%

Q: And the “AMPA receptor-mediated synaptic currents” value [9]?
A: 118±21 pA

Q: And the solubility at 90 min [10]?
A: 16 µM (≈ 7.29 µg/mL)

Q: What about the half-life at 1 μM [11] of the same molecule?
A: 53 min

Q: What about the Papp A→B [12] of the same molecule?
A: 17.3 ×10⁻⁶ cm/s

Q: And the Papp B→A [12]?
A: 66.1 ×10⁻⁶ cm/s

Q: With `Cc1ncc(CNC(=O)c2cnc(CNS(=O)(=O)c3ccc(F)c(F)c3)c(C)n2)s1` [MPX-007] as the molecule, how does the “inhibition of currents in control (uninjected) oocytes” value [13] read?
A: no effect; also recorded: No inhibition

Q: What about the solubility at 90 min [10] of the same molecule?
A: 68 µM (≈ 30.8 µg/mL)

Q: What about the half-life at 1 μM [11] of the same molecule?
A: 63 min

Q: What about the Papp A→B [12] of the same molecule?
A: 14.2 ×10⁻⁶ cm/s

Q: And the Papp B→A [12]?
A: 76.8 ×10⁻⁶ cm/s

Q: For `O=C(O)[C@@H]1[C@H](C(=O)O)NCCN1C(=O)c1ccc2c(ccc3ccccc32)c1` [PPDA, reference compound], which IC50 [1, 15] is on record?
A: 4860 ± 960 nM

Q: What about the IC50 [2, 16] of the same molecule?
A: 8490 ± 1000 nM

Q: What about the IC50 [3, 17] of the same molecule?
A: 34800 nM

Q: Which results are given for `O=C(NNC(=O)c1ccc(CNS(=O)(=O)c2ccc(F)c(Cl)c2)cc1)c1ccccc1` [TCN-201, 3-chloro-4-fluoro-N-[4-[[2-(phenylcarbonyl)hydrazino]carbonyl]benzyl]benzenesulfonamide, reference compound]?
A: solubility at 90 min [10]: 8 µM (≈ 3.7 µg/mL); half-life at 1 μM [11]: 19 min; Papp A→B [12]: 7.5 ×10⁻⁶ cm/s; Papp B→A [12]: 58.9 ×10⁻⁶ cm/s

Q: What does the source list for `Cc1ncc(CNC(=O)c2ccc(CNS(=O)(=O)c3ccc(F)c(Cl)c3)cc2)s1` [compound 2]?
A: inhibition at 10 µM [1]: > 95%; IC50 [1]: 398 ± 90 nM; inhibition at 10 µM [2]: 4 ± 1%; inhibition at 10 µM [3]: -6 ± 2%

Q: Which inhibition at 10 µM [1] does the source give for `Cc1ncc(CNC(=O)c2ccc(CNS(=O)(=O)c3ccc(F)c(Cl)c3)cn2)s1` [compound 3] here?
A: > 95%

Q: What about the IC50 [1] of the same molecule?
A: 75 ± 13 nM

Q: What about the inhibition at 10 µM [2] of the same molecule?
A: 1 ± 1%

Q: What about the inhibition at 10 µM [3] of the same molecule?
A: -6 ± 2%

Q: For `Cc1ncc(CNC(=O)c2cnc(CNS(=O)(=O)c3ccc(F)c(F)c3)cn2)s1` [compound 5], which inhibition at 10 µM [1] is on record?
A: > 95%

Q: And the IC50 [1]?
A: 116 ± 22 nM

Q: What about the inhibition at 10 µM [2] of the same molecule?
A: -8 ± 2%

Q: What about the inhibition at 10 µM [3] of the same molecule?
A: -10 ± 5%

Q: With `Cc1ncc(CNC(=O)c2ccc(CNS(=O)(=O)c3ccc(F)c(F)c3)cn2)s1` [compound 6] as the molecule, how does the inhibition at 10 µM [1] read?
A: > 95%

Q: What about the IC50 [1] of the same molecule?
A: 158 ± 30 nM

Q: And the inhibition at 10 µM [2]?
A: -1 ± 1%

Q: What about the inhibition at 10 µM [3] of the same molecule?
A: -13 ± 10%

Q: What does the source list for `Cc1ncc(CNC(=O)c2cnc(CNS(=O)(=O)c3ccc(F)c(Cl)c3)c(C)n2)s1` [compound 7]?
A: inhibition at 10 µM [1]: > 95%; IC50 [1]: 18 ± 2 nM; inhibition at 10 µM [2]: -8 ± 1%; inhibition at 10 µM [3]: -1 ± 2%

Q: Which inhibition at 10 µM [1] does the source give for `Cc1ncc(CNC(=O)c2cnc(CNS(=O)(=O)c3ccc(Cl)c(F)c3)c(C)n2)s1` [compound 8] here?
A: > 95%

Q: And the IC50 [1]?
A: 971 ± 242 nM

Q: And the inhibition at 10 µM [2]?
A: -7 ± 2%

Q: What about the inhibition at 10 µM [3] of the same molecule?
A: 6 ± 6%

Q: With `Cc1ncc(CNC(=O)c2cnc(CN(C)S(=O)(=O)c3ccc(F)c(Cl)c3)c(C)n2)s1` [compound 10] as the molecule, how does the inhibition at 10 µM [1] read?
A: > 95%

Q: And the IC50 [1]?
A: 242 ± 61 nM

Q: With Ro 25–6981 as the molecule, how does the “block of NMDA + glycine evoked currents in rat cortical neurons” value [14] read?
A: 72 ± 5% and ~ 70%
